What was measured:
Type in all cases: in vivo
corn (Zea mays) = experiment: Test A pre-/postemergence plant response
From the text: (§1) Seeds of barnyardgrass (Echinochloa crus-galli), large crabgrass (Digitaria sanguinalis), giant foxtail (Setaria faberii), morningglory (Ipomoea spp.), pigweed (Amaranthus retroflexus), velvetleaf (Abutilon theophrasti), wheat (Triticum aestivum) and corn (Zea mays) were planted into a blend of loam soil and sand and treated preemergence with a directed soil spray using test chemicals formulated in a non-phytotoxic solvent mixture which included a surfactant. At the same time these species were also treated with postemergence applications of test compounds formulated in the same manner.
(§2) Plants ranged in height from two to ten cm and were in the one- to two-leaf stage for the postemergence treatment. Treated plants and untreated controls were maintained in a greenhouse for approximately ten days, after which time all treated plants were compared to untreated controls and visually evaluated for injury. Plant response ratings, summarized in Table A, are based on a 0 to 100 scale where 0 is no effect and 100 is complete control. A dash (-) response means no test result.

[1] = tested on: velvetleaf (Abutilon theophrasti); experiment: Test A pre-/postemergence plant response
From the text: as §1, §2

[2] = tested on: wheat (Triticum aestivum); experiment: Test A pre-/postemergence plant response
From the text: as §1, §2

[3] = tested on: morningglory (Ipomoea spp.); experiment: Test A pre-/postemergence plant response
From the text: as §1, §2

[4] = tested on: giant foxtail (Setaria faberii); experiment: Test A pre-/postemergence plant response
From the text: as §1, §2

[5] = tested on: pigweed (Amaranthus retroflexus); experiment: Test A pre-/postemergence plant response
From the text: as §1, §2

[6] = tested on: large crabgrass (Digitaria sanguinalis); experiment: Test A pre-/postemergence plant response
From the text: as §1, §2

[7] = tested on: barnyardgrass (Echinochloa crus-galli); experiment: Test A pre-/postemergence plant response
From the text: as §1, §2

rice (Oryza sativa) = experiment: Test B flooded paddy test; settings: for Plant response rating, Flood, Rice: 250 g ai/ha, flooded paddy test, visual rating on 0 to 100 scale (0 no effect, 100 complete control) after 13 to 15 days; for Plant response rating, Rice: Flood (flooded paddy test), 13 to 15 days; for Rice plant response rating: Flood, 31 g ai/ha, scale 0 to 100 (0 no effect, 100 complete control)
Summary of the method: (§3)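 2-leaf seedlings; pots flooded 3 cm over soil at treatment; cpd dosed into floodwater, depth kept constant. Greenhouse 13–15 d. Visual rating vs untreated controls, 0 = no effect, 100 = complete control.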

[8] = tested on: umbrella sedge (Cyperus difformis); experiment: Test B flooded paddy test; settings: for Plant response rating, Flood, Sedge, Umbrella: 250 g ai/ha, flooded paddy test, visual rating on 0 to 100 scale (0 no effect, 100 complete control) after 13 to 15 days; for Plant response rating, Sedge, Umbrella: Flood (flooded paddy test), 13 to 15 days; for Sedge, Umbrella plant response rating: Flood, 31 g ai/ha, scale 0 to 100 (0 no effect, 100 complete control)
Summary of the method: as §3

[9] = tested on: ducksalad (Heteranthera limosa); experiment: Test B flooded paddy test; settings: for Plant response rating, Flood, Ducksalad: 250 g ai/ha, flooded paddy test, visual rating on 0 to 100 scale (0 no effect, 100 complete control) after 13 to 15 days; for Plant response rating, Ducksalad: Flood (flooded paddy test), 13 to 15 days; for Ducksalad plant response rating: Flood, 31 g ai/ha, scale 0 to 100 (0 no effect, 100 complete control)
Summary of the method: as §3

[10] = tested on: barnyardgrass (Echinochloa crus-galli); experiment: Test B flooded paddy test; settings: for Plant response rating, Flood, Barnyardgrass: 250 g ai/ha, flooded paddy test, visual rating on 0 to 100 scale (0 no effect, 100 complete control) after 13 to 15 days; for Plant response rating, Barnyardgrass: Flood (flooded paddy test), 13 to 15 days; for Barnyardgrass plant response rating: Flood, 31 g ai/ha, scale 0 to 100 (0 no effect, 100 complete control)
Summary of the method: as §3

[11] = Postemergence, 125 g ai/ha, 0 to 100 scale where 0 is no effect and 100 is complete control
[12] = Postemergence, 500 g ai/ha, 0 to 100 scale, 0 = no effect, 100 = complete control, approx. ten days
[13] = Preemergence, 125 g ai/ha, 0 to 100 scale, 0 = no effect, 100 = complete control
[14] = Preemergence, 500 g ai/ha, visual injury, 0 to 100 scale (0 no effect, 100 complete control), approx. ten days
[15] = 62 g ai/ha, scale of 0 to 100 where 0 is no effect and 100 is complete control
[16] = 125 g ai/ha, scale 0 to 100, 0 is no effect, 100 is complete control
[17] = Postemergence, 500 g ai/ha, visual injury, 0 to 100 scale (0 no effect, 100 complete control), approx. ten days
[18] = Preemergence, 500 g ai/ha, 0 to 100 scale, 0 = no effect, 100 = complete control

## CCCn1c(-c2ccccc2F)ncc(C(=O)C2=C(O)CCCC2=O)c1=O [Compound 101]
Corn (Zea mays); [11]
  Plant response rating, Corn: 0
Corn (Zea mays); [12]
  Plant response rating, Corn: 10
Corn (Zea mays); [13]
  Plant response rating, Corn: 0
Corn (Zea mays); [14]
  Plant response rating, Corn: 0
[1]; [11]
  Plant response rating, Velvetleaf: 100
[1]; [12]
  Plant response rating, Velvetleaf: 100
[1]; [13]
  Plant response rating, Velvetleaf: 80
[1]; [14]
  Plant response rating, Velvetleaf: 100
[2]; [11]
  Plant response rating, Wheat: 0
[2]; [12]
  Plant response rating, Wheat: 0
[2]; [13]
  Plant response rating, Wheat: 0
[2]; [14]
  Plant response rating, Wheat: 0
[3]; [11]
  Plant response rating, Morningglory: 60
[3]; [12]
  Plant response rating, Morningglory: 70
[3]; [13]
  Plant response rating, Morningglory: 80
[3]; [14]
  Plant response rating, Morningglory: 80
[4]; [11]
  Plant response rating, Foxtail, Giant: 60
[4]; [12]
  Plant response rating, Foxtail, Giant: 80
[4]; [13]
  Plant response rating, Foxtail, Giant: 30
[4]; [14]
  Plant response rating, Foxtail, Giant: 50
[5]; [11]
  Plant response rating, Pigweed: 90
[5]; [12]
  Plant response rating, Pigweed: 100
[5]; [13]
  Plant response rating, Pigweed: 70
[5]; [14]
  Plant response rating, Pigweed: 80
[6]; [11]
  Plant response rating, Crabgrass, Large: 90
[6]; [12]
  Plant response rating, Crabgrass, Large: 90
[6]; [13]
  Plant response rating, Crabgrass, Large: 70
[6]; [14]
  Plant response rating, Crabgrass, Large: 90
[7]; [11]
  Plant response rating, Barnyardgrass: 80
[7]; [12]
  Plant response rating, Barnyardgrass: 90
[7]; [13]
  Plant response rating, Barnyardgrass: 20
[7]; [14]
  Plant response rating, Barnyardgrass: 70
Rice (Oryza sativa)
  Plant response rating, Flood, Rice: 20
  Rice plant response rating: 0
Rice (Oryza sativa); [15]
  Plant response rating, Rice: 0
Rice (Oryza sativa); [16]
  Plant response rating, Rice: 0
[8]
  Plant response rating, Flood, Sedge, Umbrella: 65
  Sedge, Umbrella plant response rating: 0
[8]; [15]
  Plant response rating, Sedge, Umbrella: 20
[8]; [16]
  Plant response rating, Sedge, Umbrella: 30
[9]
  Plant response rating, Flood, Ducksalad: 30
  Ducksalad plant response rating: 20
[9]; [15]
  Plant response rating, Ducksalad: 30
[9]; [16]
  Plant response rating, Ducksalad: 30
[10]
  Plant response rating, Flood, Barnyardgrass: 40
  Barnyardgrass plant response rating: 20
[10]; [15]
  Plant response rating, Barnyardgrass: 40
[10]; [16]
  Plant response rating, Barnyardgrass: 40

## O=C1CCCC(O)=C1C(=O)c1cnc(-c2ccccc2)n(C2CCCCCCC2)c1=O [Compound 215]
Corn (Zea mays); [11]
  Plant response rating, Corn: 0
Corn (Zea mays); [17]
  Corn plant response rating: 30
Corn (Zea mays); [13]
  Plant response rating, Corn: 0
Corn (Zea mays); [18]
  Plant response rating, Corn: 0
[1]; [11]
  Plant response rating, Velvetleaf: 100
[1]; [17]
  Velvetleaf plant response rating: 100
[1]; [13]
  Plant response rating, Velvetleaf: 0
[1]; [18]
  Plant response rating, Velvetleaf: 70
[2]; [11]
  Plant response rating, Wheat: 0
[2]; [17]
  Wheat plant response rating: 0
[2]; [13]
  Plant response rating, Wheat: 0
[2]; [18]
  Plant response rating, Wheat: 0
[3]; [11]
  Plant response rating, Morningglory: 100
[3]; [17]
  Morningglory plant response rating: 100
[3]; [13]
  Plant response rating, Morningglory: 0
[3]; [18]
  Plant response rating, Morningglory: 70
[4]; [11]
  Plant response rating, Foxtail, Giant: 40
[4]; [17]
  Foxtail, Giant plant response rating: 80
[4]; [13]
  Plant response rating, Foxtail, Giant: 10
[4]; [18]
  Plant response rating, Foxtail, Giant: 30
[5]; [11]
  Plant response rating, Pigweed: 90
[5]; [17]
  Pigweed plant response rating: 100
[5]; [13]
  Plant response rating, Pigweed: 20
[5]; [18]
  Plant response rating, Pigweed: 90
[6]; [11]
  Plant response rating, Crabgrass, Large: 40
[6]; [17]
  Crabgrass, Large plant response rating: 70
[6]; [13]
  Plant response rating, Crabgrass, Large: 0
[6]; [18]
  Plant response rating, Crabgrass, Large: 60
[7]; [11]
  Plant response rating, Barnyardgrass: 90
[7]; [17]
  Barnyardgrass plant response rating: 100
[7]; [13]
  Plant response rating, Barnyardgrass: 0
[7]; [18]
  Plant response rating, Barnyardgrass: 20
Rice (Oryza sativa)
  Plant response rating, Flood, Rice: 15
  Rice plant response rating: 0
Rice (Oryza sativa); [15]
  Plant response rating, Rice: 0
Rice (Oryza sativa); [16]
  Plant response rating, Rice: 0
[8]
  Plant response rating, Flood, Sedge, Umbrella: 90
  Sedge, Umbrella plant response rating: 0
[8]; [15]
  Plant response rating, Sedge, Umbrella: 0
[8]; [16]
  Plant response rating, Sedge, Umbrella: 75
[9]
  Plant response rating, Flood, Ducksalad: 85
  Ducksalad plant response rating: 70
[9]; [15]
  Plant response rating, Ducksalad: 75
[9]; [16]
  Plant response rating, Ducksalad: 85
[10]
  Plant response rating, Flood, Barnyardgrass: 40
  Barnyardgrass plant response rating: 0
[10]; [15]
  Plant response rating, Barnyardgrass: 0
[10]; [16]
  Plant response rating, Barnyardgrass: 30

— patent publication US8952024B2, “Herbicidal pyrimidone derivatives” (E I du Pont de Nemours and Company, priority 2009, dated 2015)
